In patent US20260231939A1, “ARTHROPOD CONTROL COMPOSITIONS” (Firmenich SA, priority 2022, published 2026):
Like-named read-outs stand apart in the source and are kept apart here.

System: Aedes aegypti
Assay: Warm Body assay, mosquito landings on the baited warm body
Type: in vivo
Conditions: for pest or weed control at 16 µg/mL / pest or weed control at 400 µg/mL / pest or weed control at 10000 µg/mL: Aedes aegypti, read-out: Percentage of repellence of mosquitoes landing on the warm body
Protocol: The controlling effect according to the present invention was assessed using an adapted Warm Body assay as defined in Kröber T, Kessler S, Frei J, Bourquin M, Guerin P M. 2010. J Am Mosq Control Assoc. 26:381-386. In this in-vitro assay the number of mosquito landing on a warm body, simulating an attractive host treated with the tested stimuli, was measured in order to assess the repellence effect.
The published protocol has been adapted as the switch from Anopheles gambiae to Ae. aegypti led to a decrease of mosquitoes placed in the tested cage due to the size difference (i.e. 30 mosquitoes instead of 50) and to an increase of lighting since Ae. aegypti is a diurnal mosquitoes (i.e. 150 lux instead of 4 lux).
On the sandblasted glass Petri dish covering the warm body (28.3 cm^2), 100 μL of the compounds diluted at different concentrations in ethanol was applied. The number of mosquito landing on the warm body was counted for each stimulus. Number of landings on pure ethanol (solvent) control treatment was used to normalize the data and calculate the percentage of repellence.

[1] = γ-lactones, 0.016 mg/mL in ethanol
[2] = γ-lactones, 0.4 mg/mL in ethanol
[3] = γ-lactones, 10 mg/mL in ethanol
[4] = more complex lactones (types A, B, C), 0.016 mg/mL
[5] = more complex lactones (types A, B, C), 0.4 mg/mL
[6] = more complex lactones (types A, B, C), 10 mg/mL

Compound | pest or weed control at 16 µg/mL [1] | pest or weed control at 400 µg/mL [2] | pest or weed control at 10000 µg/mL [3] | other results
CCCCC1CCC(=O)O1 (centres unmarked) [5-butyloxolan-2-one] | 41% | 44% | 100% | 
CC=CCCCCCC1CCC(=O)O1 (centres unmarked) [5-oct-6-enyloxolan-2-one] | 12% | 78% | 100% | 
CCCCCCC1CCC(=O)O1 (centres unmarked) [5-hexyloxolan-2-one] | 0% | 69% | 92% | 
CCCCCCCCCCC1CCC(=O)O1 (centres unmarked) [5-decyloxolan-2-one] | 2% | 14% | 60% | 
CCCCCCC=CC1CCC(=O)O1 (centres unmarked) [5-oct-1-enyloxolan-2-one] | 0% | 60% | 98% | 
CC1(C)CC=CC2(C)OC(=O)CC12 (centres unmarked) [4,4,7a-trimethyl-3a,5-dihydro-3H-1-benzofuran-2-one] |  |  |  | pest or weed control at 16 µg/mL [4]: 83%; pest or weed control at 400 µg/mL [5]: 92%; pest or weed control at 10000 µg/mL [6]: 100%
CCCCCCC1(C)CCC(=O)O1 (centres unmarked) [5-hexyl-5-methyloxolan-2-one] |  |  |  | pest or weed control at 16 µg/mL [4]: 43%; pest or weed control at 400 µg/mL [5]: 75%; pest or weed control at 10000 µg/mL [6]: 97%
CCCCCC1OC(=O)CC1C (centres unmarked) [4-methyl-5-pentyloxolan-2-one] |  |  |  | pest or weed control at 16 µg/mL [4]: 36%; pest or weed control at 400 µg/mL [5]: 72%; pest or weed control at 10000 µg/mL [6]: 100%
CCCCCC=CCC1CCC(=O)O1 (centres unmarked) [5-oct-2-enyloxolan-2-one] | 85% | 100% | 96% | 
C=C/C=C\C1C(=O)OC1CCCCC (centres unmarked) [(Z)-3-buta-1,3-dienyl-4-pentyloxetan-2-one] |  |  |  | pest or weed control at 16 µg/mL (β- and ε-lactones, 0.016 mg/mL): 64%; pest or weed control at 400 µg/mL (β- and ε-lactones, 0.4 mg/mL): 87%; pest or weed control at 10000 µg/mL (β- and ε-lactones, 10 mg/mL): 95%
C=CCCCC1CCCCC(=O)O1 (centres unmarked) [7-pent-4-enyloxepan-2-one] |  |  |  | pest or weed control at 400 µg/mL (β- and ε-lactones, 0.4 mg/mL): 95%; pest or weed control at 10000 µg/mL (β- and ε-lactones, 10 mg/mL): 100%; Percentage of repellence of mosquitoes landing on the warm body (β- and ε-lactones, 0.4 mg/mL): 95%
CCCCCC1CCCCC(=O)O1 (centres unmarked) [7-pentyloxepan-2-one] |  |  |  | pest or weed control at 400 µg/mL (β- and ε-lactones, 0.4 mg/mL): 52%; pest or weed control at 10000 µg/mL (β- and ε-lactones, 10 mg/mL): 98%; Percentage of repellence of mosquitoes landing on the warm body (β- and ε-lactones, 0.4 mg/mL): 52%
CC/C=C\CCCCC1CCC(=O)O1 (centres unmarked) [5-[(Z)-oct-5-enyl]oxolan-2-one] | 0% | 75% | 100% | 
CC(C)(C)C1CCCCC(=O)O1 (centres unmarked) [7-tert-butyloxepan-2-one] |  |  |  | pest or weed control at 16 µg/mL (β- and ε-lactones, 0.016 mg/mL): 0%; pest or weed control at 400 µg/mL (β- and ε-lactones, 0.4 mg/mL): 0%; pest or weed control at 10000 µg/mL (β- and ε-lactones, 10 mg/mL): 66%
CCCCCCCCC1CCC(=O)O1 (centres unmarked) [5-octyloxolan-2-one] | 12% | 52% | 45% | 
CCC=C1OC(=O)c2ccccc21 [3-propylidene-2-benzofuran-1-one] |  |  |  | pest or weed control at 16 µg/mL [4]: 83%; pest or weed control at 400 µg/mL [5]: 93%; pest or weed control at 10000 µg/mL [6]: 86%
CCC=CCCCCCCC1CCC(=O)O1 (centres unmarked) [5-dec-7-enyloxolan-2-one] | 17% | 47% | 85% | 
CC1CCC(=O)O1 (centres unmarked) [5-methyloxolan-2-one] | 0% | 43% | 2% | 
C=CCCCCCCC1CCC(=O)O1 (centres unmarked) [5-oct-7-enyloxolan-2-one] | 46% | 69% | 80% | 
C=CCCC1CCC(=O)O1 (centres unmarked) [5-but-3-enyloxolan-2-one] | 57% | 75% | 100% | 
CCC1CCCC(=O)O1 (centres unmarked) [6-ethyloxan-2-one] |  |  |  | mosquitoes that still land on the warm body (10 mg/mL (1 mg absolute applied)): > 50%; pest or weed control at 16 µg/mL (δ-lactones, 0.016 mg/mL): 0%; pest or weed control at 400 µg/mL (δ-lactones, 0.4 mg/mL): 11%; pest or weed control at 10000 µg/mL (δ-lactones, 10 mg/mL): 48%
CCC=CCCC1(C)CCC(=O)O1 (centres unmarked) [5-hex-3-enyl-5-methyloxolan-2-one] | 39% | 79% | 96% | 
CCC#CCCC1CCCC(=O)O1 (centres unmarked) [6-hex-3-ynyloxan-2-one] |  |  |  | pest or weed control at 16 µg/mL (δ-lactones, 0.016 mg/mL): 0%; pest or weed control at 400 µg/mL (δ-lactones, 0.4 mg/mL): 80%; pest or weed control at 10000 µg/mL (δ-lactones, 10 mg/mL): 97%

Compound | pest or weed control at 16 µg/mL [1] | pest or weed control at 400 µg/mL [2] | pest or weed control at 10000 µg/mL [3] | other results
CCCCCC1CCCC(=O)O1 (centres unmarked) [6-pentyloxan-2-one] |  |  |  | pest or weed control at 16 µg/mL (δ-lactones, 0.016 mg/mL): 0%; pest or weed control at 400 µg/mL (δ-lactones, 0.4 mg/mL): 91%; pest or weed control at 10000 µg/mL (δ-lactones, 10 mg/mL): 98%
CCCC=CC1CCC(=O)O1 (centres unmarked) [5-pent-1-enyloxolan-2-one] | 52% | 79% | 100% | 
CC=CCCC1CCC(=O)O1 (centres unmarked) [5-pent-3-enyloxolan-2-one] | 0% | 95% | 100% | 
CCC=CC[C@H]1CCCC(=O)O1 [(6R)-6-pent-2-enyloxan-2-one] |  |  |  | pest or weed control at 16 µg/mL (δ-lactones, 0.016 mg/mL): 78%; pest or weed control at 400 µg/mL (δ-lactones, 0.4 mg/mL): 100%; pest or weed control at 10000 µg/mL (δ-lactones, 10 mg/mL): 98%
CCCCCCCC1CCC(=O)O1 (centres unmarked) [5-heptyloxolan-2-one] | 15% | 28% | 70% | 
CCCC1CCC(=O)O1 (centres unmarked) [5-propyloxolan-2-one] | 28% | 50% | 100% | 
CC/C=C\CC/C=C/C1CCC(=O)O1 (centres unmarked) [5-[(1E,5Z)-octa-1,5-dienyl]oxolan-2-one] | 52% | 65% | 97% | 
C=CCCC1CCCCC(=O)O1 (centres unmarked) [7-but-3-enyloxepan-2-one] |  |  |  | pest or weed control at 16 µg/mL (β- and ε-lactones, 0.016 mg/mL): 43%; pest or weed control at 400 µg/mL (β- and ε-lactones, 0.4 mg/mL): 75%; pest or weed control at 10000 µg/mL (β- and ε-lactones, 10 mg/mL): 99%
CCCCCCCC1=COC(=O)CC1 [5-heptyl-3,4-dihydro-2H-pyran-2-one] |  |  |  | pest or weed control at 16 µg/mL [4]: 0%; pest or weed control at 400 µg/mL [5]: 95%; pest or weed control at 10000 µg/mL [6]: 100%
O=C1CCC2CCCCC2O1 (centres unmarked) [3,4,4a,5,6,7,8,8a-octahydrochromen-2-one] |  |  |  | pest or weed control at 16 µg/mL [4]: 35%; pest or weed control at 400 µg/mL [5]: 90%; pest or weed control at 10000 µg/mL [6]: 100%
CC/C=C/CCCCC1CCC(=O)O1 (centres unmarked) [5-[(E)-oct-5-enyl]oxolan-2-one] | 0% | 87% | 100% | 
CCCCC=CCCC1CCC(=O)O1 (centres unmarked) [5-oct-3-enyloxolan-2-one] | 31% | 76% | 92% | 
C=CC=CC1C(=O)OC1CCCCC (centres unmarked) [3-buta-1,3-dienyl-4-pentyloxetan-2-one] |  |  |  | pest or weed control at 400 µg/mL (β- and ε-lactones, 0.4 mg/mL): > 80%
O=C1CCC2(CCCCC2)O1 [1-oxaspiro[4.5]decan-2-one] |  |  |  | pest or weed control at 16 µg/mL [4]: 54%; pest or weed control at 400 µg/mL [5]: 79%; pest or weed control at 10000 µg/mL [6]: 100%
C=C/C=C/C1C(=O)OC1CCCCC (centres unmarked) [(E)-3-buta-1,3-dienyl-4-pentyloxetan-2-one] |  |  |  | pest or weed control at 16 µg/mL (β- and ε-lactones, 0.016 mg/mL): 71%; pest or weed control at 400 µg/mL (β- and ε-lactones, 0.4 mg/mL): 82%; pest or weed control at 10000 µg/mL (β- and ε-lactones, 10 mg/mL): 100%
CCC1CCC(=O)O1 (centres unmarked) [5-ethyloxolan-2-one] | 0% | 16% | 74% | 
CCCCC=CC1CCC(=O)O1 (centres unmarked) [5-hex-1-enyloxolan-2-one] | 46% | 87% | 95% | 
CCCCCCC1CCCC(=O)O1 (centres unmarked) [6-hexyloxan-2-one] |  |  |  | pest or weed control at 16 µg/mL (δ-lactones, 0.016 mg/mL): 0%; pest or weed control at 400 µg/mL (δ-lactones, 0.4 mg/mL): 76%; pest or weed control at 10000 µg/mL (δ-lactones, 10 mg/mL): 91%
CCCCCC1C=CC(=O)O1 (centres unmarked) [2-pentyl-2H-furan-5-one] |  |  |  | pest or weed control at 16 µg/mL [4]: 0%; pest or weed control at 400 µg/mL [5]: 53%; pest or weed control at 10000 µg/mL [6]: 100%
CCCCCC1CCC(=O)O1 (centres unmarked) [5-pentyloxolan-2-one] | 9% | 56% | 99% | 
CCC=CC[C@@H]1CCCC(=O)O1 [(6S)-6-pent-2-enyloxan-2-one] |  |  |  | pest or weed control at 16 µg/mL (δ-lactones, 0.016 mg/mL): 73%; pest or weed control at 400 µg/mL (δ-lactones, 0.4 mg/mL): 96%; pest or weed control at 10000 µg/mL (δ-lactones, 10 mg/mL): 96%
CCCCCC1=COC(=O)CC1 [5-pentyl-3,4-dihydro-2H-pyran-2-one] |  |  |  | pest or weed control at 16 µg/mL [4]: 60%; pest or weed control at 400 µg/mL [5]: 69%; pest or weed control at 10000 µg/mL [6]: 97%
O=C1CCCCC(C2CCCCC2)O1 (centres unmarked) [7-cyclohexyloxepan-2-one] |  |  |  | pest or weed control at 16 µg/mL (β- and ε-lactones, 0.016 mg/mL): 0%; pest or weed control at 400 µg/mL (β- and ε-lactones, 0.4 mg/mL): 10%; pest or weed control at 10000 µg/mL (β- and ε-lactones, 10 mg/mL): 26%
